Assay results: publication PMC9355956 (Communications Biology, 2022)
Several values for one entry are separate records, joined by “and”; a condition that tells them apart may be missing. Equal values may be shown once. Entries after “also recorded” stand apart in the source; their conditions may differ. Where a name gives a salt, the structure may show the parent alone. Read-outs that look alike come from different tables or passages of the source. One block for each compound: values may come before it.

What was measured:
hSMOX in A549 cells = target: T1, hSMOX in A549 cells (Homo sapiens, UniProt Q9NWM0); assay: CETSA in A549 cells with hSMOX AlphaLISA detection; type: cell-based; details: A549 intact cells, 54 °C, vs vehicle
T1 construct: human lung carcinoma cells (A549) which endogenously produce high levels of hSMOX; endogenous in cells; host or cells: A549 human lung carcinoma cells
T1 sequence (Q9NWM0 whole entry): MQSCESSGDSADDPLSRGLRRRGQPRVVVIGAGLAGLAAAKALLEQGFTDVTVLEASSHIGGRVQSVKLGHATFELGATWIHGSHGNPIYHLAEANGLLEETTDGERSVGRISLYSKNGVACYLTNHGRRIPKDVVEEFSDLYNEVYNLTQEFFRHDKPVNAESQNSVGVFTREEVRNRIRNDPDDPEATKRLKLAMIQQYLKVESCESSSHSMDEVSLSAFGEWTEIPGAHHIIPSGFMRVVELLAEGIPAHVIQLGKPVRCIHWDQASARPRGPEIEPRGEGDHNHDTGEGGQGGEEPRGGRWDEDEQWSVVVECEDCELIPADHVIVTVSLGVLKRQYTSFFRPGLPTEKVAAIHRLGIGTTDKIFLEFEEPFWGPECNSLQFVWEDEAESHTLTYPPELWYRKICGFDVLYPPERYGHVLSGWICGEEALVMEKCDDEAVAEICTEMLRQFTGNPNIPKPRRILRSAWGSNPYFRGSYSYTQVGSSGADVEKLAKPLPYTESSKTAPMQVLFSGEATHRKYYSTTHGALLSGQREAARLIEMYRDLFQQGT
From the text: To determine whether JNJ-1289 would be able to target hSMOX in a cellular environment, we developed a Cellular Thermal Shift Assay (CETSA®)[52] using human lung carcinoma cells (A549) which endogenously produce high levels of hSMOX[53]. CETSA evaluates the binding of low molecular weight compounds to target proteins directly in intact cells by taking advantage of the increased resistance to thermal denaturation that ligand binding can confer on proteins. Detection of the relative amounts of remaining soluble protein using AlphaLISA after incubation of A549 cells at the optimal melting temperature of hSMOX for CETSA (54 °C) was performed in the presence or absence of hSMOX ligands.
A549 (adenocarcinoma human alveolar basal epithelial cells) express relatively high levels of hSMOX. Their use has been widely reported in the literature for the investigation of the polyamine catabolic pathway. In our case, using hSMOX high-expressing cells with CETSA and AlphaLISA systems provided the optimal platform for screening promising small molecules for hSMOX inhibition.
T175 culture flasks with 80–90% confluent cells were used for harvesting after washing two times with PBS followed by the addition of 2 mL TrypLE^TMselect (Gibco) per flask and incubation for 5 min at 37 °C. After dissociation, cells were resuspended in 1 mL culture medium (DMEM (Gibco) with 10% fetal calf serum) and 7 mL PBS. Cells from multiple flasks were pooled, spun down for 5 min at 300 × g, and resuspended to 20 million cells/mL in PBS.
Compounds were dissolved in DMSO to 1 mM stocks. Compound stocks and DMSO controls were added to vials containing 1 mL cell suspension to an end concentration of 10 µM compound and 1% DMSO. Vials were incubated at 37 °C for 1 h while shaking at 125 rpm. Subsequently, vials were cooled on ice and cells were distributed to PCR vials at 20 µL per vial. Transient heating of the cells was performed using a PCR Thermocycler. Vials were heated up to 54 °C for 1 min and then immediately cooled on ice. For temperature range experiments the heating step was repeated increasing the temperature with each next vial with 1 °C. After the cooling step cells were lysed by adding 80 µL 1x AlphaLISA-buffer (Perkin Elmer).
The hSMOX specific AlphaLISA was developed using internally monoclonal rabbit antibody mAb#2 and F(ab’)2 fragment Fab#33 against hSMOX containing a C-terminal His-tag. Both mAb#2 and Fab#33 are specific for hSMOX and selected for their ability to detect hSMOX without interfering with its catalytic activity. Care was taken to confirm that both mAb#2 and Fab#33 bind to distinct (conformational) epitopes. […] After 1 h Alpha signal was read using an Alpha compatible reader. […]

hSMOX [1] = target: T2, hSMOX (Homo sapiens, UniProt Q9NWM0); assay: hSMOX HyPerBlu chemiluminescent enzyme activity assay (H2O2 detection, Spm substrate); type: biochemical; details: for time-dependent inhibition of hSMOX: ± 2 h preincubation with enzyme
T2 construct: 6xHis (N); TEV cleavage site (N); made in house; host or cells: E. coli BL21(D3), plasmid PET28b(+)
T2 sequence (Q9NWM0 whole entry): as above
From the text: Based on this assay, we carried out a high-throughput screening campaign searching for inhibitors of hSMOX against a diverse compound collection.

murine SMOX enzyme = details: value reported for the murine SMOX enzyme; cited from earlier work
LSD1 = LSD1 (Homo sapiens, UniProt O60341); assay: LSD1 HyPerBlu enzyme activity assay (H3K4me2 peptide substrate)
hSMOX [2] = target: T2, hSMOX; assay: Thermal shift assay (ThermoFluor, ANS dye) of purified hSMOX; type: binding; details: compared to DMSO control
Protocol: The fluorescent dye ANS (Molecular Probes) was used to monitor the thermal denaturation of hSMOX. Assay buffer consisting of 10 mM HEPES pH 7.5, 150 mM NaCl, 0.005% P20 was used for all dilutions. The assay was performed in 384-well Hard Shell thin-wall PCR plates (Bio-Rad). 120 nL of ligand was dispensed into the 384-well plate using acoustic dispensing technology followed by the addition of 4 µL of 0.2 mg/ml of hSMOX with 60 µM ANS dye. Replicates of 4% DMSO protein control were set up in each plate. Wells were covered with 1 µL silicone oil. Plates were centrifuged at 1000 rpm for 2 min. The Tm’s were measured using a ThermoFluor instrument. The plates were heated from 30 to 80 °C at a rate of 1 °C per minute. The ΔTm is calculated as the difference between the Tm of each well and that of the average 4% DMSO protein control.

hSMOX [3] = target: T2, hSMOX; assay: Progress curve analysis of hSMOX inhibition (on rate, mode of inhibition); type: biochemical
Protocol: Reactions were initiated with 3 µL/well of 2x hSMOX and quenched at several time points up to 1 h with 3 µL/well of 25 µM final chlorhexidine. […] Thereafter, 9 µL/well of HyPerBlu reagent was added.
Time point data up to 1 h of reaction time was captured by dispensing 3 µL/well of 25 µM final chlorhexidine to quench the reactions followed by the addition of 9 µL/well HyPerBlu reagent.
Supplementary Fig. 11. Kinetics of JNJ-1289. a, Reaction progress curve analysis of 2 nM […]
Progress curves were monitored for 1h and fit to Eqn S1 at each JNJ-1289 concentration to determine the observed rate constant, kobs.
[P] = Y0 + υ t + υi−υs (1 − e−kobst) (S1) […]
where υi and υs are the initial and steady state velocities, respectively, t is time and kobs represents the observed rate constant. b, Replot of kobs vs. [JNJ-1289] was hyperbolic, which indicated a two-step binding mechanism […]
where I is the inhibitor concentration, k5 and k6 are the estimated forward and reverse rate constants, respectively, and Kiapp is the apparent value of the initial E·I complex. […]
concentrations (7.8 – 1000 µM). Progress curves were monitored for 1h and fit to Eqn S3 at […]
(1 picture or pasted object on this page, not shown here)

hSMOX [4] = target: T2, hSMOX; assay: nanoDSF thermal denaturation of purified SMOX; type: binding; details: 10 μM SMOX, 100 μM compound
Protocol: All nanoDSF experiments were performed on a nanoTEMPER Prometheus NT.48 instrument. 10 μM purified SMOX was incubated with 100 μM compound of interest for 10 min and loaded onto the instrument. Thermal denaturation (25–90 °C) was conducted at 1.0 °C/min and 45% intensity. Tm was calculated using PR.ThermControl software as the inflection point of the first derivative of Trp fluorescence during the temperature gradient measured at 350/330 nm. All experiments were performed in triplicate.

hPAOX = hPAOX (Homo sapiens, UniProt Q6QHF9); assay: hPAOX HyPerBlu enzyme activity assay (N-AcSpm substrate)
hPAOX, sequence (Q6QHF9 whole entry): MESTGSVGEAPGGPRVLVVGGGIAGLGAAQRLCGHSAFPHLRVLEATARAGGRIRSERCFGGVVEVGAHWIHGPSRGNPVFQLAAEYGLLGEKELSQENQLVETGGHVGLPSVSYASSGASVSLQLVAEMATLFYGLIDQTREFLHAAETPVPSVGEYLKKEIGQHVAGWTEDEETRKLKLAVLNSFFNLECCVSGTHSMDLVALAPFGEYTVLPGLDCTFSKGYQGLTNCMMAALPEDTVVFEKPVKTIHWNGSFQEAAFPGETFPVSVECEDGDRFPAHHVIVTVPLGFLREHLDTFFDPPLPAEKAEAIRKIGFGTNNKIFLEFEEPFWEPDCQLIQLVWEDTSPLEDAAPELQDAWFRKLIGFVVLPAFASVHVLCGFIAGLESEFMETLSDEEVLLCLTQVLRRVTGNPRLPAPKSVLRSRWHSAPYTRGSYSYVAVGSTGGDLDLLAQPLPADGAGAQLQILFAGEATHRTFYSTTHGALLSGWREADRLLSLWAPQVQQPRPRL
Protocol: The activity of hSMOX, hPAOX, and LSD1 enzymes was measured using the HyPerBlu chemiluminescent reagent for the direct detection of the hydrogen peroxide product. […] Hydrogen peroxide product formation was monitored 30 min after the addition of HyPerBlu on a PHERAstar microplate reader (BMG LABTECH, Cary, NC). All compounds were spotted into the assay plates using Echo acoustic dispensing technology (BeckmanCoulter, Indianapolis, IN). Unless otherwise stated, all reactions were carried out in 384-well assay format.
2 µL/well of 2x substrate was dispensed into the assay plate followed by 2 µL/well of 2x enzyme to initiate the reactions. […] The data were fit to the 4-parameter IC50 equation in GraphPad Prism.
50 nL/well of the twofold inhibitor titrations in 100% DMSO were dispensed into the assay plate followed by the addition of 2.5 µL of 2x hSMOX or 2x hPAOX. A 2 h or 4 h E·I preincubation was carried out at a final concentration of 2 nM or 3 nM hSMOX or 60 pM hPAOX. […] For the 0 h preincubation control, the addition of the substrate solution was made prior to the enzyme solution. […] The data were fit to the 4-parameter IC50 equation in GraphPad Prism.
Briefly, 2.5 µL/well of the twofold substrate solutions prepared in buffer was added to the assay wells followed by 2.5 µL/well of the 2x enzyme to initiate the reactions.
The initial velocity data were fit to the Michaelis-Menten equation in GraphPad Prism. Y=Vmax*X/(Km+X) where Vmax is the maximal velocity, X is the substrate concentration and Km is the Michaelis-Menten constant. The kcat value was determined by dividing Vmax value by the enzyme concentration.

[5] = 2.5 nM hSMOX, 30 µM Spm, 1 h reaction, HTS assay conditions, read-out: IC50 hSMOX

Compound: CCNCCCNCCCNCCCNCC [Benspm]
- cellular hSMOX engagement (AlphaLISA signal after heating) (hSMOX in A549 cells): absence of cellular hSMOX engagement

Compound: [H]/N=C(\N/C(=N/[H])NCCCCCCNC(=N)NC(=N)Nc1ccc(Cl)cc1)Nc1ccc(Cl)cc1 [chlorhexidine, reference compound]
- inhibition of hSMOX (in words) (hSMOX [1]): robust inhibition
- IC50 (hSMOX [1]; [5]): 1900 nM
- inhibition of hSMOX (in words) (hSMOX [1]; listed as Chlorhexidine): inhibited
- time-dependent inhibition of hSMOX (hSMOX [1]): not observed
- time-dependent inhibition of hSMOX (hSMOX [1]; listed as Chlorhexidine): did not display time-dependent inhibition
- cellular hSMOX engagement (AlphaLISA signal after heating) (hSMOX in A549 cells): absence of cellular hSMOX engagement
- Ki (murine SMOX enzyme): 3.8 ± 0.2 µM

Compound: NCCCNCCCCNCCCN [Spm, spermine]
- kcat hSMOX (hSMOX [1]; substrate, 2.5 nM hSMOX): 4 s⁻¹

Compound: CC(=O)NCCCNCCCCNCCCN [N-AcSpm, N^1-acetylspermine trihydrochloride]
- Km (hPAOX; read-out: Km for hPAOX, substrate, 0.076 nM hPAOX): 20.1 ± 0.63 µM
- kcat hPAOX (hPAOX; substrate, 0.076 nM hPAOX): 57 s⁻¹

Now from value to compound, other results behind:

- IC50 (hSMOX [1]; [5]): 50 nM
- IC50 (hSMOX [1]; 2 h preincubation, 30 µM Spm, read-out: IC50 hSMOX, 2 h (120 min) enzyme-inhibitor preincubation): 5.5 nM and 8 nM
- IC50 (hSMOX [1]; IC50 hSMOX, 4 h (240 min) enzyme-inhibitor preincubation, 4 h preincubation, 30 µM Spm): 3.2 nM
- IC50 (hSMOX [1]; no preincubation, 30 µM Spm, read-out: IC50 hSMOX, 0 h enzyme-inhibitor preincubation): 143 nM and 127 nM
- IC50 (LSD1): > 2000 nM
- ΔTm of hSMOX (thermal shift) (hSMOX [2]): 11.3 °C
- mode of inhibition with respect to Spm (hSMOX [3]; 312 nM inhibitor, varying Spm, 2 nM hSMOX): competitive hSMOX inhibitor
- t1/2 dissociation (hSMOX [3]; from 0.693/koff): 462 min
- Ki (hSMOX [3]; read-out: apparent Ki (Ki app) of the initial E·I complex): 1400 nM
- kon (hSMOX [3]; read-out: apparent second-order on-rate constant (kon)): 2500 M⁻¹ s⁻¹
- koff (hSMOX [3]; read-out: calculated first-order dissociation rate constant (koff)): 2.5e-05 s⁻¹
- IC50 (hPAOX): > 2000 nM
- time-dependent inhibition of hPAOX (hPAOX; ± 2 h preincubation with enzyme): do not observe time-dependent inhibition
Compound: Oc1ccc(Nc2nc(-c3cnc4ccccn34)cs2)cc1 [JNJ-1289, 4-((4-imidazo[1,2,α]pyridine-3-ylthiazol-2-yl)amino)phenol]
- IC50 hSMOX, 4 h (240 min) enzyme-inhibitor preincubation (hSMOX [1]; 4 h preincubation, 30 µM Spm): within twofold of the results observed using a 120 min pre-incubation
- time-dependent inhibition of hSMOX (hSMOX [1]): selective and time-dependent inhibition; also recorded: time-dependent hSMOX inhibitor
- cellular hSMOX engagement (AlphaLISA signal after heating) (hSMOX in A549 cells): absence of cellular hSMOX engagement; also recorded: apparent lack of target engagement
- thermal stability of hSMOX (nanoDSF) (hSMOX [4]): increase the thermal stability of the protein

- cellular hSMOX engagement (AlphaLISA signal after heating) (hSMOX in A549 cells): robust cellular hSMOX engagement
Compound: C=C=CCNCCCCNCC=C=C [MDL72527, reference compound]
- thermal stability of hSMOX (nanoDSF) (hSMOX [4]): increase the thermal stability of the protein
